Measured values from article PMC9416745, “The Effect of 1,2,4-Triazole-3-thiol Derivatives Bearing Hydrazone Moiety on Cancer Cell Migration and Growth of Melanoma, Breast, and Pancreatic Cancer Spheroids” (Pharmaceuticals, 2022).
One block for each compound: values may come before it.

What was measured:
[1] = tested on: human malignant melanoma cell line IGR39; experiment: MTT cell viability assay, IGR39; assay type: cell-based
Method: (§1) The effect of synthesized compounds on cell viability was studied using 3-(4,5-dimethylthiazol-2-yl)-2,5-diphenyltetrazolium bromide (MTT; Sigma-Aldrich Co., St Louis, MO, USA) assay, as described elsewhere. Briefly, IGR39, MDA-MB-231, Panc-1, and HF cells were seeded in 96-well plates (Corning) in triplicate at a volume of 100 μL (IGR39, MDA-MB-231 and Panc-1: 4 × 10^3 cells/well; HF: 5 × 10^3 cells/well). After 24 h, cells were treated with 50 μM of tested compounds. After 72 h, the MTT reagent was added and cells were incubated for 4 h. Then the medium was aspirated, and the formed formazan crystals were dissolved in 100 μL DMSO (Sigma-Aldrich Co., St. Louis, MO, USA). The absorbance was measured at 570 and 630 nm using a multi-detection microplate reader. The compound effect on cell viability was calculated using the formula:(1) Relative cell viability (%)=A−A0/ANC−A0 where
(§2) • A—mean of absorbance of the tested compound, • A0—mean of absorbance of blank (no cells, positive control), and • ANC—mean of absorbance of negative control (only cells, no treatment).
(§3) The compound serial dilutions from 50 µM to 1.56 µM were made in a medium and added to the cells in triplicates. The EC50 value representing the concentration of a compound causing 50% reduction of cancer cell metabolic activity was calculated using the Hill equation.

[2] = tested on: human pancreatic carcinoma cell line Panc-1; experiment: MTT cell viability assay, Panc-1; assay type: cell-based; conditions: 72 h, serial dilutions 50-1.56 µM, n = 3, read-out: EC50 against Panc-1
Method: as §1, §2, §3

[3] = tested on: Human foreskin fibroblasts (HF) CRL-4001; experiment: MTT cell viability assay, fibroblasts; assay type: cell-based; conditions: 72 h
Method: as §1, §2, §3

[4] = tested on: human triple-negative breast cancer MDA-MB-231; experiment: MTT cell viability assay, MDA-MB-231; assay type: cell-based
Method: as §1, §2, §3

[5] = tested on: IGR39, MDA-MB-231 and Panc-1 cell migration; experiment: 'Wound healing' cell migration assay, stated for all tested cell lines; assay type: cell-based, human; conditions: 10 µM, compared to the control
Method: (§4) Briefly, melanoma IGR39, human triple-negative breast cancer MDA-MB-231, and pancreatic carcinoma Panc-1 cells were seeded in 24-well plates at a density of 6 × 10^4 cells/well and incubated for 48 h in previously described cell culture medium at 37°C in a humidified atmosphere containing 5% CO2. Then the scratch was made using a 100 µL pipette tip. Cells were washed once with PBS, and the fresh medium containing 10 µM of compounds 4, 7, 8, 10, 14, 17, and 18 was added. Medium containing 0.1% DMSO was used as a negative control. Cells were incubated at 37 °C in a humidified atmosphere containing 5% CO2.
(§5) The ‘Wounds’ were captured at the intervals of 0 h, 24 h, 48 h and 72 h (only for the Panc-1 cell line) from scratch under the phase contrast microscope at a 4× magnification. The wound area was analysed using the ImageJ program (National Institute of Health, Bethesda, MD, USA).

[6] = tested on: MDA-MB-231 cell migration; experiment: 'Wound healing' cell migration assay, MDA-MB-231; assay type: cell-based, human; conditions: 10 µM, both after 24 h and 48 h of incubation
Method: as §4, §5

[7] = tested on: IGR39, MDA-MB-231 and Panc-1 cell lines; experiment: MTT cell viability assay, result stated for all tested cancer cell lines together; assay type: cell-based, human; conditions: 72 h
Method: as §1, §2, §3

[8] = tested on: IGR39, MDA-MB-231 and Panc-1 tumour spheroids; experiment: 3D cell cultures (spheroids), stated for all three spheroid types; assay type: cell-based, human; conditions: 10 µM, 8 days of incubation
Method: (§6) Cancer cell spheroids were formed using the magnetic 3D Bioprinting method, as described elsewhere. Briefly, melanoma IGR39, triple-negative breast cancer MDA-MB-231 cells, pancreatic cancer Panc-1 cells, and human fibroblasts at 70% confluency in a 6-well plate were incubated with Nanoshuttle (n3D Biosciences, Inc., Houston, TX, USA) for 8 h at 37°C in a humidified atmosphere containing 5% CO2. Then cells were trypsinized, centrifuged, and seeded into an ultra-low attachment 96-well plate in a volume of 100 µL (1.5 × 10^3 cancer cells and 1.5 × 10^3 human fibroblasts/well). The plate was placed on a magnetic drive and incubated for 2 days at 37°C in a humidified atmosphere containing 5% CO2. Then the fresh medium containing 10 µM of the tested compound was added to the wells. Spheroids were captured every two days using the Olympus IX73 inverted microscope (OLYMPUS CORPORATION, Tokyo, Japan). Quantitative analysis of compound anticancer activity in spheroids was performed using ImageJ, version 1.53o (National Institutes of Health, USA) and Microsoft Office Excel 2016 software (Microsoft Corporation, Redmond, WA, USA).
(§7) On the last day of incubation, 10 µL of WST-1 reagent (Sigma-Aldrich Co, St. Louis, MO, USA) was added to each well with spheroids. After 10 h of incubation, 50 µL of liquid from each well were transferred to the new 96-well plate and the absorbance was measured at 460 and 530 nm using a multi-detection microplate reader. Spheroid cell viability was calculated using a formula provided in Section 3.2.2.

[9] = tested on: melanoma IGR39 spheroids; experiment: 3D cell cultures (spheroids), IGR39; assay type: cell-based, human; conditions: 10 µM, 8 days of incubation
Method: as §6, §7

melting point: 189 to 190 °C
SMILES: Cc1ccc(C=NNC(=O)CSc2nnc(CCNc3ccccc3)n2-c2ccccc2)cc1 [Compound 9, N′-(4-methylbenzylidene)-2-((4-phenyl-5-(2-(phenylamino)ethyl)-4H-1,2,4-triazol-3-yl)thio)acetohydrazide]

EC50 ([1]; Homo sapiens, IGR-39, 72 h, serial dilutions 50-1.56 µM, n = 3, read-out: EC50 against IGR39): 22.3 ± 2.5 µM
EC50 ([4]; Homo sapiens, MDA-MB-231, 72 h, serial dilutions 50-1.56 µM, n = 3, read-out: EC50 against MDA-MB-231): 9.7 ± 1.6 µM
EC50 [2]: 26.2 ± 1 µM
melting point: 169 to 170 °C
SMILES: CN(C)c1ccc(C=NNC(=O)CSc2nnc(CCNc3ccccc3)n2-c2ccccc2)cc1 [Compound 10, N′-(4-(dimethylamino)benzylidene)-2-((4-phenyl-5-(2-(phenylamino)ethyl)-4H-1,2,4-triazol-3-yl)thio)acetohydrazide]
selectivity against the melanoma IGR39 cell line (screening) ([1]; 50 µM, 72 h): moderate selectivity
EC50 ([3]; Homo sapiens, Fibroblast, serial dilutions 50-1.56 µM, n = 3, read-out: EC50 against fibroblasts): 61.4 ± 2.8 µM
effect on cell migration [5]: inhibited all cancer cell migration
MDA-MB-231 cell migration [6]: migrated slower

melting point: 209 to 210 °C
SMILES: O=C(CSc1nnc(CCNc2ccccc2)n1-c1ccccc1)NN=Cc1ccncc1 [Compound 11, 2-((4-Phenyl-5-(2-(phenylamino)ethyl)-4H-1,2,4-triazol-3-yl)thio)-N′-(pyridin-4-ylmethylene)acetohydrazide]

melting point: 92 to 93 °C
SMILES: O=C(CSc1nnc(CCNc2ccccc2)n1-c1ccccc1)NN=Cc1cccnc1 [Compound 12, 2-((4-Phenyl-5-(2-(phenylamino)ethyl)-4H-1,2,4-triazol-3-yl)thio)-N′-(pyridin-3-ylmethylene)acetohydrazide]

melting point: 233 to 234 °C
SMILES: O=C(CSc1nnc(CCNc2ccccc2)n1-c1ccccc1)NN=Cc1ccc(C(=O)O)cc1 [Compound 13, 4-((2-(2-((4-Phenyl-5-(2-(phenylamino)ethyl)-4H-1,2,4-triazol-3-yl)thio)acetyl)hydrazono)methyl)benzoic acid]

melting point: 62 to 63 °C
SMILES: Cn1ccc(C=NNC(=O)CSc2nnc(CCNc3ccccc3)n2-c2ccccc2)n1 [Compound 16, N′-((1-methyl-1H-pyrazol-3-yl)methylene)-2-((4-phenyl-5-(2-(phenylamino)ethyl)-4H-1,2,4-triazol-3-yl)thio)acetohydrazide]

EC50 ([7]; Homo sapiens, range over cancer cell lines, read-out: EC50 values against the tested cancer cell lines (range)): 2 to 17 µM
melting point: 219 to 220 °C
SMILES: O=C(CSc1nnc(CCNc2ccccc2)n1-c1ccccc1)NN=Cc1cc([N+](=O)[O-])ccc1O [Compound 18, N′-(2-hydroxy-5-nitrobenzylidene)-2-((4-phenyl-5-(2-(phenylamino)ethyl)-4H-1,2,4-triazol-3-yl)thio)acetohydrazide]
activity against all tested cancer cell lines (screening) ([7]; 50 µM): most active
activity in 3D cell cultures (spheroids) [8]: most active
melanoma IGR39 spheroid growth [9]: mostly inhibited

melting point: 196 to 197 °C
SMILES: CSc1ccc(C=NNC(=O)CSc2nnc(CCNc3ccccc3)n2-c2ccccc2)cc1 [Compound 19, N′-(4-(methylthio)benzylidene)-2-((4-phenyl-5-(2-(phenylamino)ethyl)-4H-1,2,4-triazol-3-yl)thio)acetohydrazide]
activity against the IGR39 cell line (screening) ([1]; 50 µM, 72 h): least active
activity towards the triple-negative breast cancer cell line (screening) ([4]; 50 µM, 72 h): relatively higher activity

The remaining lines, values behind:

SMILES: CCOC(=O)CSC1NN=C(CCNc2ccccc2)N1c1ccccc1 (centres unmarked) [Compound 2, Ethyl 2-((4-phenyl-3-(2-(phenylamino)ethyl)-4,5-dihydro-1H-1,2,4-triazol-5-yl)thio)acetate]
melting point: 121 to 122 °C

SMILES: NNC(=O)CSc1nnc(CCNc2ccccc2)n1-c1ccccc1 [Compound 3, 2-((4-Phenyl-5-(2-(phenylamino)ethyl)-4H-1,2,4-triazol-3-yl)thio)acetohydrazide]
melting point: 112 to 113 °C

SMILES: COc1ccc2c(c1)C(=NNC(=O)CSc1nnc(CCNc3ccccc3)n1-c1ccccc1)C(=O)N2 [Compound 5, N′-(5-methoxy-2-oxoindolin-3-ylidene)-2-((4-phenyl-5-(2-(phenylamino)ethyl)-4H-1,2,4-triazol-3-yl)thio)acetohydrazide]
melting point: 238 to 239 °C

SMILES: O=C(CSc1nnc(CCNc2ccccc2)n1-c1ccccc1)NN=C1C(=O)Nc2ccc([N+](=O)[O-])cc21 [Compound 6, N′-(5-nitro-2-oxoindolin-3-ylidene)-2-((4-phenyl-5-(2-(phenylamino)ethyl)-4H-1,2,4-triazol-3-yl)thio)acetohydrazide]
melting point: 274 to 275 °C

SMILES: O=C(CSc1nnc(CCNc2ccccc2)n1-c1ccccc1)NN=C1C(=O)Nc2ccc(F)cc21 [Compound 7, N′-(5-fluoro-2-oxoindolin-3-ylidene)-2-((4-phenyl-5-(2-(phenylamino)ethyl)-4H-1,2,4-triazol-3-yl)thio)acetohydrazide]
activity against the IGR39 cell line (screening) ([1]; 50 µM, 72 h): most active
melting point: 266 to 267 °C

SMILES: O=C(CSc1nnc(CCNc2ccccc2)n1-c1ccccc1)NN=C1C(=O)Nc2ccc(OC(F)(F)F)cc21 [Compound 8, N′-(2-oxo-5-(trifluoromethoxy)indolin-3-ylidene)-2-((4-phenyl-5-(2-(phenylamino)ethyl)-4H-1,2,4-triazol-3-yl)thio)acetohydrazide]
activity against the IGR39 cell line (screening) ([1]; 50 µM, 72 h): most active
EC50 [2]: 38.5 ± 1.6 µM
cytotoxicity against fibroblasts ([3]; compared with the other selected compounds): lower cytotoxicity against fibroblasts
melting point: 258 to 259 °C

SMILES: O=C(CSc1nnc(CCNc2ccccc2)n1-c1ccccc1)NN=Cc1c[nH]nc1-c1ccccc1 [Compound 15, N′-((3-phenyl-1H-pyrazol-4-yl)methylene)-2-((4-phenyl-5-(2-(phenylamino)ethyl)-4H-1,2,4-triazol-3-yl)thio)acetohydrazide]
melting point: 119 to 120 °C
